According to patent publication US11492325B2, “Compounds as inhibitors of sodium channels” (Human BioMolecular Research Institute, priority 2016, dated 2022):
Like-named read-outs stand apart in the source and are kept apart here.

Experiments:
[1] = tested on: normal human induced pluripotent stem cell (hiPSC) cardiomyocyte; conditions: for WT-Fold Prolongation: APD; for WT-Fold Prolongation / Cessation of Beating / WT-EAD Dose / WT-Prolongation Dose: normal hiPSC cardiomyocytes
[2] = tested on: cardiomyocytes derived from hiPSCs from a LQTS3 patient
[3] = WT cardiomyocytes, AP prolongation
[4] = LQT-3 cardiomyocytes, AP shortening

Cessation of Beating [1]	LQT-Cessation Dose ([2]; LQT3 cardiomyocytes)	SMILES	WT-Fold Prolongation [1]	WT-EAD Dose [1] [µM]	LQT-Fold Shortening ([2]; LQT3 cardiomyocytes)	LQT-Shortening Dose ([2]; LQT3 cardiomyocytes)	further results
133 µM	22 µM	CCNC(COc1cccc(C)c1C)c1ccccc1 (stereo not drawn) [Compound 33, 2-(2,3-dimethylphenoxy)-N-ethyl-1-phenylethanamine]	None		None	None	WT-Prolongation Dose [1]: None
None	None	C[C@H](N)COc1ccccc1Cl [Compound 59]	2.832	133	None	None	
66 µM	66 µM	Cc1cc(C)cc(OCC(NCCO)c2ccccc2)c1 (stereo not drawn) [Compound 92]	None		1.41		WT-Prolongation Dose [1]: None
66 µM	66 µM	Cc1ccc(C(N)COc2c(C)cccc2C)cc1 (stereo not drawn) [Compound 17, 2-(2,6-dimethylphenoxy)-1-p-tolylethanamine]	None		1.58		WT-Prolongation Dose [1]: None
None	None	CC(N)COc1ccccn1 (stereo not drawn) [Compound 48, (Pyridin-2-yloxy)propan-2-amine]	None		None	None	WT-Prolongation Dose [1]: None; WT-Cessation Dose ([1]; pyridyl derivatives): No cessation of beating; WT-EC50 (μM) Prolongation ([1]; pyridyl derivatives): Does Not Prolong AP; LQT-EC50 (μM) Shortening ([2]; pyridyl derivatives): Does Not Shorten; LQT-Fold Shortening ([2]; pyridyl derivatives): Does Not Shorten; LQT-Shortening Dose ([2]; pyridyl derivatives): Does Not Shorten
	None	Cc1cccc(C)c1OCC(O)C(C)(C)C (stereo not drawn) [Compound 22]			1.29		
None	22 µM	Cc1ccnc(OCC(N)c2ccccc2)c1 (stereo not drawn) [Compound 95, 2-((4-methylpyridin-2-yl)oxy)-1-phenylethan-1-amine]	2.68	133	1.22		
None	None	CC(N)COc1ccccc1C(F)(F)F (stereo not drawn) [Compound 51, 1-(2-(Trifluoromethyl)phenoxy)propan-2-amine]	None		1.37		WT-Prolongation Dose [1]: None
None	None	C[C@@H](N)COc1ccccc1Cl [Compound 58]	2.392	200	None	None	

The next lines start with the compound.

SMILES	Cessation of Beating [1]	LQT-Cessation Dose ([2]; LQT3 cardiomyocytes)	WT-Fold Prolongation [1]	WT-EAD Dose [1] [µM]	LQT-Fold Shortening ([2]; LQT3 cardiomyocytes)	LQT-Shortening Dose ([2]; LQT3 cardiomyocytes)	further results
COCCNC(COc1ccc(C)nc1C)c1ccccc1 (stereo not drawn) [Compound 125]							WT-EC50 (μM) Prolongation [1, 3]: Does Not Prolong AP; LQT-Fold Shortening ([2]; LQT-3 cardiomyocytes): Does Not Shorten; LQT-Shortening Dose (μM) ([2]; LQT-3 cardiomyocytes): Does Not Shorten; LQT-EC50 (μM) Shortening [2, 4]: Does Not Shorten
COCCNC(COc1cnccc1C)c1ccccc1 (stereo not drawn) [Compound 123]							WT-EC50 (μM) Prolongation [1, 3]: Does Not Prolong AP; LQT-Fold Shortening ([2]; LQT-3 cardiomyocytes): 1.402; LQT-EC50 (μM) Shortening [2, 4]: Shortens
Cc1cc(C)cc(OCC(N)c2ccccc2)c1 (stereo not drawn) [Compound 104b]							EC50 ([2]; read-out: LQT-EC50 (μM)-Shortening, 'No AP' wraps to 'No AP shortening'): 0.87 µM
Cc1cccc(OCC(C)N)c1.Cl (stereo not drawn) [Compound 86]	None	None	1.68	66	1.418		LQT-IC50 (uM)-Shortening ([2]; APD shortening, LQT3 cardiomyocytes): Shortens
NC(COc1cc(C(F)(F)F)cc(C(F)(F)F)c1)c1ccc2ccccc2c1 (stereo not drawn) [Compound 132]							WT-EC50 (μM) Prolongation [1, 3]: Does Not Prolong AP; LQT-Fold Shortening ([2]; LQT-3 cardiomyocytes): 1.205; LQT-EC50 (μM) Shortening [2, 4]: Shortens; LQT-Cessation Dose (μM) ([2]; LQT-3 cardiomyocytes, cessation of beating): No cessation of beating
Cc1ccc(OCC(N)c2ccccc2)c(C)n1 (stereo not drawn) [Compound 119]							WT-EC50 (μM) Prolongation [1, 3]: Does Not Prolong AP; WT-Cessation Dose (μM) ([1]; WT cardiomyocytes, cessation of beating): No cessation of beating; LQT-Fold Shortening ([2]; LQT-3 cardiomyocytes): 1.123; LQT-EC50 (μM) Shortening [2, 4]: Shortens
Cc1ccc(OCC(C)N)c(C)c1.Cl (stereo not drawn) [Compound 64]	None	None	2.621	133	None	None	
Cc1cccc2c1OCC(C1CC1)NC2.Cl (stereo not drawn) [Compound 74]	None	None	2.633	133	None	None	
Cc1cc(OCC(N)c2ccccc2)cc(C)n1.Cl (stereo not drawn) [Compound 79]	None	None	5.06	200	1.145		
